Activity calls are given as the source filed them.
Tests used:
[1] = Luminescence Cell-Based Dose Confirmation HTS to Identify Inhibitors of Platelet Dense Granule Release. [Related pubchem assays: 1663 (Primary HTS), 1678 (Summary of Project)]; assay type: functional
[2] = molecular target: Luciferin 4-monooxygenase (Photinus pyralis, UniProt P08659); assay: inhibition of purified Photinus pyralis luciferase – biochemical, luminescence, dose response (AID 1891)
[3] = NIH-3T3 fibroblast cytotoxicity, dose response, cytotoxicity control, cell-based, fluorescence, Alamar Blue, secondary assay (AID 2327); assay type: functional;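 further: NIH-3T3 mouse fibroblasts cultured with fluconazole at 8 µg/mL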
[4] = fluconazole-exposed Candida albicans growth modulators – fluorescence, retest, confirmation (AID 2467); assay type: functional, cell-based
[5] = molecular target: T1, Corticotropin-releasing factor receptor 2/Corticotropin-releasing factor-binding protein (Homo sapiens, UniProt P24387+Q13324); assay: Dose Response confirmation of uHTS hits for small molecule antagonists of the CRF-binding protein and CRF-R2 receptor complex.; assay type: functional; settings: read-out: IC50_Mean
T1 sequence (Q13324 whole entry): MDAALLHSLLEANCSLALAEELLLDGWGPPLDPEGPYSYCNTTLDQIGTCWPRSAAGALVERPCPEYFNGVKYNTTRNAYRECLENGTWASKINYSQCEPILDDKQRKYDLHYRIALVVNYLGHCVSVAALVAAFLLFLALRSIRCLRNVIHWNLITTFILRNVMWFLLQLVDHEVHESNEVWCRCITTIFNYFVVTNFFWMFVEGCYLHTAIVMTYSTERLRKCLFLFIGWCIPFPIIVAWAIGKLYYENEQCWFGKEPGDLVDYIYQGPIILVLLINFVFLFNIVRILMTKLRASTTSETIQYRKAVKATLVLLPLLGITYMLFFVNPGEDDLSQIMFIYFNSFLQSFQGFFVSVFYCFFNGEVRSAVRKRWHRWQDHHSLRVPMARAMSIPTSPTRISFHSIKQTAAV
T1 sequence (P24387 whole entry): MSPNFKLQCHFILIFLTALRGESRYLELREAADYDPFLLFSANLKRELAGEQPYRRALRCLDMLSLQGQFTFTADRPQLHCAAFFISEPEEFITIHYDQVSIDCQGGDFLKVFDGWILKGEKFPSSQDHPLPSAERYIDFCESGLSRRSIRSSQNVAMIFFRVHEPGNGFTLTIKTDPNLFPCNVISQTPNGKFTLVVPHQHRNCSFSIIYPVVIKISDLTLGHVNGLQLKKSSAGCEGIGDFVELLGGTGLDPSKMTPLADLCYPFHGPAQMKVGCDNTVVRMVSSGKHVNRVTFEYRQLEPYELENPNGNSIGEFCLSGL

[6] = molecular target: T1, Corticotropin-releasing factor receptor 2/Corticotropin-releasing factor-binding protein; assay: activators of CRF receptor 2 with binding protein – uHTS hits, confirmation (AID 602473); assay type: functional; settings: read-out: EC50_Mean
Cytochrome P450 2C9 [7] = molecular target: T2, Cytochrome P450 2C9 (Homo sapiens, UniProt P11712)
T2 sequence (P11712 whole entry): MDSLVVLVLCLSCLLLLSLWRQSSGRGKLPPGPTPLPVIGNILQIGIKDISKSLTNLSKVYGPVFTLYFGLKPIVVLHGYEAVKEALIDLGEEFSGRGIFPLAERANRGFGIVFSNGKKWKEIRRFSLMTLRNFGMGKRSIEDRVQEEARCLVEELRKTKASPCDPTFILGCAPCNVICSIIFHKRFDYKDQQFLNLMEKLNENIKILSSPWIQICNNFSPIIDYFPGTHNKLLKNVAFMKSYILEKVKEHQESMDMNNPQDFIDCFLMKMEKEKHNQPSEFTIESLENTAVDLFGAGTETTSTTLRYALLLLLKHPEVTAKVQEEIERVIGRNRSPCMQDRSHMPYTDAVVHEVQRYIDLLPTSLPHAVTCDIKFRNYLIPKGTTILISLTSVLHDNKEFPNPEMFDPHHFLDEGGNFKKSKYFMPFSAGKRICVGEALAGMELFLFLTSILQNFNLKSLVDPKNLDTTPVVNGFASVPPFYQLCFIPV

Cytochrome P450 3A4 = Cytochrome P450 3A4 (Homo sapiens, UniProt P08684);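 further: CYP3A4 tested as one member of a cytochrome P450 panel screen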
Sequence of Cytochrome P450 3A4 (P08684 whole entry): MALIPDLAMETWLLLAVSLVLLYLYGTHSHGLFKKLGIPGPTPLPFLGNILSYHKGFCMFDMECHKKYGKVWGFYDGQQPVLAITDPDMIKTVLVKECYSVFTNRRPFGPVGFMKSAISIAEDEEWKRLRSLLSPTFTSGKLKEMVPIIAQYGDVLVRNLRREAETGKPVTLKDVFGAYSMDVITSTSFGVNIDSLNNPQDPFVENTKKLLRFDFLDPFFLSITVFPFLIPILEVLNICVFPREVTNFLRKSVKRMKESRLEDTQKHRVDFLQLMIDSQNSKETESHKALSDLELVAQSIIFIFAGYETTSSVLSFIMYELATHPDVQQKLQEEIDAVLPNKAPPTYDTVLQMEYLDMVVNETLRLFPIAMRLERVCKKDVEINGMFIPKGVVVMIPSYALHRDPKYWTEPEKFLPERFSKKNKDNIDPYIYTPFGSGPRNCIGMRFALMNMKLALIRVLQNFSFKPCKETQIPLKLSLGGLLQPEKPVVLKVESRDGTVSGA

H4 = assay: Luminescence Cell-Based Dose Response HTS to Identify Activators of 5'UTR Stem-Loop Driven Prion Protein mRNA Translation in H4 Neuroglioblastoma Cells. [Related pubchem assays: 1829 (Project Summary), 1814 (Primary HTS)]; assay type: functional; settings: Homo sapiens
[8] = Luminescence Cell-Based Dose Response HTS to Identify Activators of Luciferase Translation or Activity in H4 […] Cells. [Related pubchem assays: 1829 (Project Summary), 1814 (Primary HTS)]; assay type: functional
[9] = Luminescence Cell-Based Dose Confirmation HTS to Identify Activators of 5'UTR Stem-Loop Driven Alpha-Synuclein mRNA Translation in H4 Neuroglioblastoma Cells. [Related pubchem assays: 1829 (Project Summary), 1814 (Primary HTS)]; assay type: functional
[10] = Trypanosoma cruzi growth suppression in host cells – NIH3T3 host cells, beta-gal luminescence, confirmation (AID 2044); assay type: functional, cell-based;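 further: intracellular parasites grown in NIH/3T3 mouse fibroblasts as host cells; luminescent beta-galactosidase reporter signal from transgenic T. cruzi replicating inside host cells; inhibitors lower the luminescence signal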
Cytochrome P450 2C19 = Cytochrome P450 2C19 (Homo sapiens, UniProt P33261); assay: Cytochrome panel assay with activity outcomes. Panel member name: p450-cyp2c19 Compounds with AC50 equal or less than 10 uM are considered active; assay type: functional
Sequence of Cytochrome P450 2C19 (P33261 whole entry): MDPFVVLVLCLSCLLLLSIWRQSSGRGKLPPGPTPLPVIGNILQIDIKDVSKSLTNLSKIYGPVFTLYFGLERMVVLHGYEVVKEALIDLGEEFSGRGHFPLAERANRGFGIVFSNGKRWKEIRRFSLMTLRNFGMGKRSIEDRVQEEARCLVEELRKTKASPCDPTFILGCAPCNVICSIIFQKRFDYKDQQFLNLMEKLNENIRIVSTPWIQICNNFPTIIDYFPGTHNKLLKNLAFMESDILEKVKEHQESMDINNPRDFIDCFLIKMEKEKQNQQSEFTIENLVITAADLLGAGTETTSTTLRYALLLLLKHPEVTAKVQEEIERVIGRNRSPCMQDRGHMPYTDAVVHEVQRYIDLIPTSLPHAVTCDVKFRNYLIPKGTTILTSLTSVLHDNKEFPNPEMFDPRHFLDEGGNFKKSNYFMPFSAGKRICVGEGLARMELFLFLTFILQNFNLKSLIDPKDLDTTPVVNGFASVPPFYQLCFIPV

[11] = NIH3T3 cell viability loss – ATP luminescence, mouse fibroblasts, counter-screen, dose response (AID 2010); assay type: functional, cell-based;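 further: cells exposed to compound for about 90 hours before reading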
Cytochrome P450 2C9 [12] = molecular target: T2, Cytochrome P450 2C9; remark: listed apart in the source
[13] = P. falciparum Dd2 growth inhibitors, dose response, SYBR Green, cherry-picked samples (AID 1159567); assay type: functional, cell-based
Streptococcus = assay: GAS UMAA2166 growth inhibition – luminescence, BacTiterGlo, counter-screen for streptokinase expression inhibitor project, dose response (AID 1915); assay type: functional, organism-based;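 further: potency for reduction of bacterial viability or growth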
[14] = system: Streptococcus sp. 'group A'; assay: Streptococcus pyogenes SK(-)GAS viability under kanamycin – luminescence, BacTiterGlo, confirmation, counter-screen for streptokinase expression inhibitor project, dose response (AID 1900); assay type: functional, organism-based
Cytochrome P450 1A2 = molecular target: T3, Cytochrome P450 1A2 (Homo sapiens, UniProt P05177);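 further: PubChem cytochrome P450 panel assay, CYP1A2 panel member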
T3 sequence (P05177 whole entry): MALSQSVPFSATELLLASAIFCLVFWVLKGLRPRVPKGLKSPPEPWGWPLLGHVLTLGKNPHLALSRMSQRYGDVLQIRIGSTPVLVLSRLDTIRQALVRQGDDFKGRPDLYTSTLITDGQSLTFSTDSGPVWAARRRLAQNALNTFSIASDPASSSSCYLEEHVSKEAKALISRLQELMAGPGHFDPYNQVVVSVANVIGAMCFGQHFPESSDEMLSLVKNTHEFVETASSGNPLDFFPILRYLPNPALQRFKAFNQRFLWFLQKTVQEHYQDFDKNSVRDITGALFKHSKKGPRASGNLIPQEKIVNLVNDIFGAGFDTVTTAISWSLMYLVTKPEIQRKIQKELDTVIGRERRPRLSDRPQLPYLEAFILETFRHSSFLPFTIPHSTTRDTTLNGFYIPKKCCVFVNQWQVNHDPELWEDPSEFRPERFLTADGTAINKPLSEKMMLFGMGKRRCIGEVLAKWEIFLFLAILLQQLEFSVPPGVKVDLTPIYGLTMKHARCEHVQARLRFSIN

[15] = HIV-1 AD8 envelope cell-cell fusion blockers – cherry-pick, dose response (AID 652062); assay type: functional, cell-based;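 further: luciferase signal from cell-cell fusion driven by HIV-1 clade B AD8 Env; potency is for inhibitors of fusion seen as a drop in luminescence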

Sequence of Luciferin 4-monooxygenase (P08659 whole entry): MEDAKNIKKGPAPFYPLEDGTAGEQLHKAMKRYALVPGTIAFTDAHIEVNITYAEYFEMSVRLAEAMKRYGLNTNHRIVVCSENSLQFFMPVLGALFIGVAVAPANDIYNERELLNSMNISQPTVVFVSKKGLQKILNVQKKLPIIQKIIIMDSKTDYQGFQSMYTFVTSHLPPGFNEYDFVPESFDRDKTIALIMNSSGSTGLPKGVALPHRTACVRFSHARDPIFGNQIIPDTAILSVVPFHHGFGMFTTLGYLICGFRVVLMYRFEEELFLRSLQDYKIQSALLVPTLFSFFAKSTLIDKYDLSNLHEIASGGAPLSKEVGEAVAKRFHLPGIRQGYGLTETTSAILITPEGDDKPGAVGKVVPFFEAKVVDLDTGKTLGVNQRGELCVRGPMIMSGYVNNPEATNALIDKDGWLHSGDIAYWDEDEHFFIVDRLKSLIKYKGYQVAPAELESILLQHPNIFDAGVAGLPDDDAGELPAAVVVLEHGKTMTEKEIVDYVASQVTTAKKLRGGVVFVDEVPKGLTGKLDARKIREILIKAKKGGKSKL

## Cc1ccc2oc(-c3cccc(NC(=O)C4CCCO4)c3)nc2c1 (configuration not stated)
[1]
  EC50: > 112 µM (not active)
[2]
  EC50: 26.6 µM (active)

## O=C(CCCCCN1C(=O)c2cccc3cccc(c23)C1=O)N1CCOCC1
[3]
  EC50: 22.3 µM (active)
[4]
  EC50: > 38 µM (not active)

## COc1ccc(CNc2oc(COc3ccccc3)nc2C#N)cc1
[5]
  IC50: > 47.1 µM (inactive)
[6]
  EC50: > 53 µM (inactive)

## CCOc1ccccc1NC(=O)CN1CCC(NC(=O)c2ccccc2)CC1
Cytochrome P450 2C9 [7]
  AC50: inconclusive

## CCOc1ccc(NC(=O)CCCN2C(=O)C(c3ccccc3)Oc3cccnc32)cc1 (configuration not stated)
[5]
  IC50: > 47.1 µM (inactive)
[6]
  EC50: > 53 µM (inactive)

## CN(C)c1ccnc(-c2cccc(NS(C)(=O)=O)c2)n1
Cytochrome P450 2C9 [7]
  AC50: inconclusive
Cytochrome P450 3A4
  AC50: 31.6 µM (inconclusive)

## Cc1ccc(OCn2c(=O)sc3ccccc32)cc1
H4
  EC50: 14 µM (active)
[8]
  EC50: 35.3 µM (active)
[9]
  EC50: 42 µM (active)
[5]
  IC50: > 47.1 µM (inactive)
[6]
  EC50: > 53 µM (inactive)

## COCc1nnc(NC(=O)c2ccc(S(=O)(=O)N3CCCc4ccccc43)cc2)o1
[3]
  EC50: > 150 µM (inconclusive)
[4]
  EC50: 2.96 µM (active)

## CC1CCC(NC(=O)CCN2C(=O)C3CC=CCC3C2=O)CC1 (configuration not stated)
[5]
  IC50: > 47.1 µM (inactive)
[6]
  EC50: > 53 µM (inactive)

## Cc1cc2ccccc2c(=O)n1CC(=O)NCC(=O)N1CCCC1
Cytochrome P450 2C9 [7]
  AC50: inconclusive

## CCCCNC(=O)CCc1nc2cccnc2n1Cc1ccc(OC)cc1
[5]
  IC50: > 47.1 µM (inactive)
[6]
  EC50: > 53 µM (inactive)

## COC(=O)c1c(C)[nH]c(O)c1/C=N/c1ccc(C(C)C)cc1
[10]
  EC50: 4.19 µM (active)
Cytochrome P450 2C19; read-out: AC50
  AC50: 25.1 µM (inconclusive)
Cytochrome P450 3A4
  AC50: 28.2 µM (inconclusive)
[6]
  EC50: > 53 µM (inactive)
[11]
  EC50: > 60 µM (inconclusive)
Cytochrome P450 2C9 [12]
  AC50: 28.2 µM (inconclusive)

## COc1ccc(CC(=S)N2CCOCC2)cc1OC
Cytochrome P450 2C9 [7]
  AC50: inconclusive

## Cc1noc(C)c1C(=O)N1CCC2(CCN(Cc3ccccc3)CC2)CC1
Cytochrome P450 2C9 [7]
  AC50: inconclusive

## Cc1ccc(S(=O)(=O)n2nnc3ccccc32)c(C)c1C
[5]
  IC50: > 47.1 µM (inactive)
[6]
  EC50: > 53 µM (inactive)

## N#C[C@@H]1[C@H](c2ccccc2-c2cccc(F)c2)[C@@H](CO)N1C(=O)C1CCCC1
[13]
  AC50: 4.79 µM (active)

## O=c1cc(Cc2ccc([N+](=O)[O-])cc2)[nH]c(=O)[nH]1
[5]
  IC50: > 47.1 µM (inactive)
[6]
  EC50: > 53 µM (inactive)

## CCc1ccc(OCC(=O)NNC(=S)NC(=O)C2CCCCC2)c(Br)c1
[3]
  EC50: > 150 µM (inactive)
[4]
  EC50: 2.33 µM (active)
Streptococcus
  EC50: 3.91 µM (active)
[14]
  EC50: < 0.06 µM (active)

## COc1cc(OC)c(C#N)c(S(=O)(=O)Cc2ccccc2)c1
Cytochrome P450 2C9 [7]
  AC50: inconclusive

## O=C(c1cc(C(F)(F)F)cc(C(F)(F)F)c1)N1CCC2(CC1)CCN(c1ncccn1)CC2
Cytochrome P450 2C9 [7]
  AC50: inconclusive

## O=C(/C=C/c1ccccc1)NC(=S)Nc1ccc(N2CCOCC2)c(Cl)c1
[3]
  EC50: > 160 µM (inactive)
[4]
  EC50: 5.76 µM (active)

## C/C(CC(=O)Nc1cc(Cl)ccc1Cl)=N\NC(N)=S
Cytochrome P450 2C9 [7]
  AC50: inconclusive
Cytochrome P450 2C19; read-out: AC50
  AC50: 28.2 µM (inconclusive)
Cytochrome P450 1A2
  AC50: 12.6 µM (inconclusive)

## COc1ccccc1CNC(=O)C[C@H]1C[C@H]2c3cc(NC(=O)Cc4ccncc4)ccc3O[C@H]2[C@H](CO)O1
[13]
  AC50: 5.4 µM (active)

## COc1ccc(/C=C2\SC(=S)N(CC(=O)NCCO)C2=O)cc1
[5]
  IC50: > 47.1 µM (inactive)
[6]
  EC50: > 53 µM (inactive)

## CN(C)c1nc(C#N)nc(N2CCOCC2)n1
Cytochrome P450 2C9 [7]
  AC50: inconclusive
Cytochrome P450 2C19
  AC50: inconclusive

## Cc1ccccc1C(=O)NC(=S)NCC(=O)c1ccccc1
Cytochrome P450 2C9 [7]
  AC50: inconclusive
Cytochrome P450 3A4
  AC50: 28.2 µM (inconclusive)

## O=C(c1ccccc1F)N1CC(=O)N2[C@H](C1)[C@H](c1ccc(-c3ccccc3)cc1)[C@@H]2CO
[13]
  AC50: 5.6 µM (active)

## COc1ccccc1C#Cc1ccc2c(c1)[C@H]1[C@H](CCN1C(=O)CN1CCOCC1)[C@@H](CO)N2
[13]
  AC50: 5.01 µM (active)

## CCc1ccc(N2C(=O)c3ccc4c5c(ccc(c35)C2=O)CC4)cc1
Cytochrome P450 2C9 [7]
  AC50: inconclusive

## C=CCn1c(C)cc(C(=O)CSc2nnc(Cc3ccccc3)o2)c1C
[5]
  IC50: > 47.1 µM (inactive)
[6]
  EC50: > 53 µM (inactive)

## N#Cc1ccccc1Sc1ccccc1N
[5]
  IC50: > 47.1 µM (inactive)
[6]
  EC50: > 53 µM (inactive)
Cytochrome P450 1A2
  AC50: 22.4 µM (inconclusive)

## COc1cccc(Nc2ncc3nc(-c4cn(C)c5ccccc45)c(=O)n(C[C@H]4CCCO4)c3n2)c1
Cytochrome P450 2C9 [7]
  AC50: inconclusive

## CCN1C(=O)[C@H]2[C@@H](c3ccc(C(F)(F)F)cc3)N[C@]3(CCCN(Cc4ccccc4)C3=O)[C@H]2C1=O
[15]
  AC50: 0.682 µM (active)

## COc1ccc(C#Cc2ccc([C@@H]3[C@@H](CO)N4CCCCN(C(=O)Nc5ccccc5F)C[C@@H]34)cc2)cc1
[13]
  AC50: 8.08 µM (active)

## O=C(CN1C(=O)NC2(CCCC2)C1=O)c1ccc(Cl)s1
[5]
  IC50: > 47.1 µM (inactive)
[6]
  EC50: > 53 µM (inactive)

## Cc1ccc(-c2csc3nnc(SCC(=O)N4CCN(Cc5ccccc5)CC4)n23)cc1
[5]
  IC50: > 47.1 µM (inactive)
[6]
  EC50: > 53 µM (inactive)

## Cc1nc2ccccn2c1C(=O)N/N=C/c1ccccc1[N+](=O)[O-]
Cytochrome P450 2C9 [7]
  AC50: inconclusive

## COc1ccccc1NC(=O)c1cnc2n(c1=O)CCS2
Cytochrome P450 2C9 [7]
  AC50: inconclusive
Cytochrome P450 3A4
  AC50: 31.6 µM (inconclusive)
